Measurements published in patent US20100331297A1, “MODULATION OF PROTEIN TRAFFICKING” (FOLDRX PHARMACEUTICALS, INC., priority 2007, published 2010).

Tested on: ypt1^ts cells
Experiment: Rescue of growth of ypt1^ts mutant yeast (OD600)
Type: cell-based
Conditions: Saccharomyces cerevisiae, read-out: Ypt1-ts MRC (Minimum Rescue Concentration), ypt1^ts cells, 35° C. and 37° C., OD600; multiple results separated by a comma
Summary of the method: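 Log-phase ypt1^ts cells (N121I/A161V) in SC 2% glucose were diluted to OD600 0.003 and treated with compound at 50 μM-0.05 μM final in 1% DMSO. Cultures were incubated at 35° C. (read at 24 and 40 h) or 37° C. (read at 40 h), with rescue measured as OD600 growth and reported as minimum rescue concentration.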

Question: How did the minimal effective concentration turn out when `CC(C)(C)n1nc(-c2ccc(Cl)cc2)c2c(N)ncnc21` [compound 25] was run?
Answer: < 10 µM
